# According to publication PMC4411097, “Pachymic Acid Inhibits Growth and Induces Apoptosis of Pancreatic Cancer In Vitro and In Vivo by Targeting ER Stress” (PLoS ONE, 2015):
# Tested on: MIA PaCa-2 cells
# Experiment: DNA microarray analysis (Affymetrix Human PrimeView)
# Format: cell-based
structure (smiles),measurement,setting,value
"C=C(CC[C@@H](C(=O)O)[C@H]1[C@H](O)C[C@@]2(C)C3=C(CC[C@]12C)[C@@]1(C)CC[C@H](OC(C)=O)C(C)(C)[C@@H]1CC3)C(C)C [PA, Pachymic acid]","Fold-Change (MiaPaca-2 * PA vs. MiaPaca-2 * control), HSPA1B",probeset 11729120_x_at,1.90
same,"Mean (MiaPaca-2 * PA), HSPA1B",probeset 11729120_x_at,11.15
same,"Fold-Change (MiaPaca-2 * PA vs. MiaPaca-2 * control), ADAMTS4",probeset 11730923_x_at,2.20
same,"Mean (MiaPaca-2 * PA), ADAMTS4",probeset 11730923_x_at,8.77
same,"Fold-Change (MiaPaca-2 * PA vs. MiaPaca-2 * control), RCAN1",probeset 11733797_a_at,1.68
same,"Mean (MiaPaca-2 * PA), RCAN1",probeset 11733797_a_at,9.17
same,"Fold-Change (MiaPaca-2 * PA vs. MiaPaca-2 * control), SOCS2",probeset 11735148_a_at,1.78
same,"Mean (MiaPaca-2 * PA), SOCS2",probeset 11735148_a_at,6.08
same,"Fold-Change (MiaPaca-2 * PA vs. MiaPaca-2 * control), C17orf91",probeset 11736304_a_at,1.70
same,"Mean (MiaPaca-2 * PA), C17orf91",probeset 11736304_a_at,6.00
same,"Fold-Change (MiaPaca-2 * PA vs. MiaPaca-2 * control), C17orf91",probeset 11736305_x_at,1.71
same,"Mean (MiaPaca-2 * PA), C17orf91",probeset 11736305_x_at,6.44
same,"Fold-Change (MiaPaca-2 * PA vs. MiaPaca-2 * control), SERPINB8",probeset 11737922_a_at,2.08
same,"Mean (MiaPaca-2 * PA), SERPINB8",probeset 11737922_a_at,8.90
same,"Fold-Change (MiaPaca-2 * PA vs. MiaPaca-2 * control), FLJ36031",probeset 11739443_a_at,1.69
same,"Mean (MiaPaca-2 * PA), FLJ36031",probeset 11739443_a_at,6.38
same,"Fold-Change (MiaPaca-2 * PA vs. MiaPaca-2 * control), TNFRSF9",probeset 11740393_at,2.27
same,"Mean (MiaPaca-2 * PA), TNFRSF9",probeset 11740393_at,8.01
same,"Fold-Change (MiaPaca-2 * PA vs. MiaPaca-2 * control), GBP3",probeset 11741911_a_at,1.86
same,"Mean (MiaPaca-2 * PA), GBP3",probeset 11741911_a_at,6.08
same,"Fold-Change (MiaPaca-2 * PA vs. MiaPaca-2 * control), CXCL2",probeset 11744127_at,2.45
same,"Mean (MiaPaca-2 * PA), CXCL2",probeset 11744127_at,10.98
same,"Fold-Change (MiaPaca-2 * PA vs. MiaPaca-2 * control), CXCL2",probeset 11744128_x_at,2.30
same,"Mean (MiaPaca-2 * PA), CXCL2",probeset 11744128_x_at,11.01
same,"Fold-Change (MiaPaca-2 * PA vs. MiaPaca-2 * control), HSPA1A",probeset 11744413_x_at,2.45
same,"Mean (MiaPaca-2 * PA), HSPA1A",probeset 11744413_x_at,10.47
same,"Fold-Change (MiaPaca-2 * PA vs. MiaPaca-2 * control), SAMD4A",probeset 11745209_a_at,1.79
same,"Mean (MiaPaca-2 * PA), SAMD4A",probeset 11745209_a_at,6.54
same,"Fold-Change (MiaPaca-2 * PA vs. MiaPaca-2 * control), SERPINE1",probeset 11746856_a_at,1.78
same,"Mean (MiaPaca-2 * PA), SERPINE1",probeset 11746856_a_at,7.81
same,"Fold-Change (MiaPaca-2 * PA vs. MiaPaca-2 * control), UPP1",probeset 11747820_x_at,1.93
same,"Mean (MiaPaca-2 * PA), UPP1",probeset 11747820_x_at,8.45
same,"Fold-Change (MiaPaca-2 * PA vs. MiaPaca-2 * control), SERPINB8",probeset 11748180_a_at,2.13
same,"Mean (MiaPaca-2 * PA), SERPINB8",probeset 11748180_a_at,10.10
same,"Fold-Change (MiaPaca-2 * PA vs. MiaPaca-2 * control), UPP1",probeset 11748775_a_at,1.75
same,"Mean (MiaPaca-2 * PA), UPP1",probeset 11748775_a_at,10.33
same,"Fold-Change (MiaPaca-2 * PA vs. MiaPaca-2 * control), FOS",probeset 11749291_a_at,1.74
same,"Mean (MiaPaca-2 * PA), FOS",probeset 11749291_a_at,6.87
same,"Fold-Change (MiaPaca-2 * PA vs. MiaPaca-2 * control), GBP1",probeset 11749773_x_at,1.92
same,"Mean (MiaPaca-2 * PA), GBP1",probeset 11749773_x_at,5.41
same,"Fold-Change (MiaPaca-2 * PA vs. MiaPaca-2 * control), CYR61",probeset 11749905_a_at,2.32
same,"Mean (MiaPaca-2 * PA), CYR61",probeset 11749905_a_at,9.84
same,"Fold-Change (MiaPaca-2 * PA vs. MiaPaca-2 * control), HSPA1A /// HSPA1B",probeset 11750411_x_at,2.09
same,"Mean (MiaPaca-2 * PA), HSPA1A /// HSPA1B",probeset 11750411_x_at,10.73
same,"Fold-Change (MiaPaca-2 * PA vs. MiaPaca-2 * control), MIR17HG",probeset 11752442_a_at,1.88
same,"Mean (MiaPaca-2 * PA), MIR17HG",probeset 11752442_a_at,6.16
same,"Fold-Change (MiaPaca-2 * PA vs. MiaPaca-2 * control), GBP1",probeset 11752931_x_at,1.83
same,"Mean (MiaPaca-2 * PA), GBP1",probeset 11752931_x_at,5.47
same,"Fold-Change (MiaPaca-2 * PA vs. MiaPaca-2 * control), EGR1",probeset 11752940_a_at,1.69
same,"Mean (MiaPaca-2 * PA), EGR1",probeset 11752940_a_at,10.59
same,"Fold-Change (MiaPaca-2 * PA vs. MiaPaca-2 * control), DUSP1",probeset 11752993_a_at,1.78
same,"Mean (MiaPaca-2 * PA), DUSP1",probeset 11752993_a_at,7.26
same,"Fold-Change (MiaPaca-2 * PA vs. MiaPaca-2 * control), TNFSF4",probeset 11753073_a_at,1.71
same,"Mean (MiaPaca-2 * PA), TNFSF4",probeset 11753073_a_at,5.89
same,"Fold-Change (MiaPaca-2 * PA vs. MiaPaca-2 * control), SLC3A2",probeset 11753435_x_at,1.69
same,"Mean (MiaPaca-2 * PA), SLC3A2",probeset 11753435_x_at,8.06
same,"Fold-Change (MiaPaca-2 * PA vs. MiaPaca-2 * control), IL8",probeset 11754026_a_at,2.84
same,"Mean (MiaPaca-2 * PA), IL8",probeset 11754026_a_at,11.16
same,"Fold-Change (MiaPaca-2 * PA vs. MiaPaca-2 * control), CXCL1",probeset 11754114_a_at,2.46
same,"Mean (MiaPaca-2 * PA), CXCL1",probeset 11754114_a_at,11.01
same,"Fold-Change (MiaPaca-2 * PA vs. MiaPaca-2 * control), HBEGF",probeset 11755981_a_at,1.90
same,"Mean (MiaPaca-2 * PA), HBEGF",probeset 11755981_a_at,4.80
same,"Fold-Change (MiaPaca-2 * PA vs. MiaPaca-2 * control), HSPA6 /// HSPA7",probeset 11757367_s_at,19.93
same,"Mean (MiaPaca-2 * PA), HSPA6 /// HSPA7",probeset 11757367_s_at,9.17
same,"Fold-Change (MiaPaca-2 * PA vs. MiaPaca-2 * control), NFKBIZ",probeset 11757513_at,2.08
same,"Mean (MiaPaca-2 * PA), NFKBIZ",probeset 11757513_at,10.08
same,"Fold-Change (MiaPaca-2 * PA vs. MiaPaca-2 * control), DDIT3",probeset 11758347_s_at,1.70
same,"Mean (MiaPaca-2 * PA), DDIT3",probeset 11758347_s_at,7.10
same,"Fold-Change (MiaPaca-2 * PA vs. MiaPaca-2 * control), MIR17HG",probeset 11758429_s_at,1.80
same,"Mean (MiaPaca-2 * PA), MIR17HG",probeset 11758429_s_at,4.78
same,"Fold-Change (MiaPaca-2 * PA vs. MiaPaca-2 * control), TNFSF18",probeset 11759254_at,1.84
same,"Mean (MiaPaca-2 * PA), TNFSF18",probeset 11759254_at,8.90
same,"Fold-Change (MiaPaca-2 * PA vs. MiaPaca-2 * control), NCRNA00275",probeset 11759550_at,1.82
same,"Mean (MiaPaca-2 * PA), NCRNA00275",probeset 11759550_at,7.61
same,"Fold-Change (MiaPaca-2 * PA vs. MiaPaca-2 * control), SAT1",probeset 11760200_a_at,1.75
same,"Mean (MiaPaca-2 * PA), SAT1",probeset 11760200_a_at,6.19
same,"Fold-Change (MiaPaca-2 * PA vs. MiaPaca-2 * control), EBNA1BP2",probeset 11760295_at,1.73
same,"Mean (MiaPaca-2 * PA), EBNA1BP2",probeset 11760295_at,4.62
same,"Fold-Change (MiaPaca-2 * PA vs. MiaPaca-2 * control), GRAMD1B",probeset 11762010_a_at,1.80
same,"Mean (MiaPaca-2 * PA), GRAMD1B",probeset 11762010_a_at,7.49
same,"Fold-Change (MiaPaca-2 * PA vs. MiaPaca-2 * control), CASP1",probeset 11763186_at,1.70
same,"Mean (MiaPaca-2 * PA), CASP1",probeset 11763186_at,5.56
same,"Fold-Change (MiaPaca-2 * PA vs. MiaPaca-2 * control), IL8",probeset 11763226_x_at,2.95
same,"Mean (MiaPaca-2 * PA), IL8",probeset 11763226_x_at,11.12
same,"Fold-Change (MiaPaca-2 * PA vs. MiaPaca-2 * control), CXCL1 /// CXCL2",probeset 11763250_x_at,2.26
same,"Mean (MiaPaca-2 * PA), CXCL1 /// CXCL2",probeset 11763250_x_at,10.74
same,"Fold-Change (MiaPaca-2 * PA vs. MiaPaca-2 * control), GRAMD1B",probeset 11763323_x_at,1.71
same,"Mean (MiaPaca-2 * PA), GRAMD1B",probeset 11763323_x_at,6.75
